Measurements reported in patent US10280184B2, “Heterocyclic kinase inhibitors” (AbbVie Inc., priority 2014, dated 2019).
Counter-ions that a name gives are not always drawn.

Target: BTK (Homo sapiens (Human), UniProt Q06187)
Test: In vitro BTK kinase activity measured by trFRET
Format: biochemical
Settings: recombinant human catalytic domain (aa 393-659), 0.01 mM ATP; read-out: Btk enzyme IC50
Protocol: In Vitro BTK Kinase Activity Measured by Time-Resolved Fluorescence Resonance Energy Transfer (trFRET)
The in-house BTK corresponds to recombinant human catalytic domain (aa 393-659), which was expressed in SF9 cells with an N-terminal his tag and purified by immobilized metal affinity chromatography. BTK was mixed with peptide substrate (biotin-TYR1, Sequence: Biotin-(Ahx)-GAEEEIYAAFFA-COOH, 0.4 μM final) at varying inhibitor concentrations in reaction buffer: 50 mM MOPSO pH 6.5, 10 mM MgCl2, 2 mM MnCl2, 2.5 mM DTT, 0.01% BSA, 0.1 mM Na3VO4 and 0.01 mM ATP. After about 60 min incubation at rt, the reaction was quenched by addition of EDTA (final concentration: 100 mM) and developed by addition of detection reagents (final approximate concentrations: 30 mM HEPES pH 7.0, 0.06% BSA, 0.006% Tween-20, 0.24 M KF, 80 ng/mL PT66K (europium labeled anti-phosphotyrosine antibody cat #61T66KLB Cisbio, Bedford, Mass.) and 0.6 μg/mL SAXL (Phycolink streptavidin-allophycocyanin acceptor, cat #PJ25S, Prozyme, San Leandro, Calif.). The developed reaction was incubated in the dark for about 60 min at rt, then read via a time-resolved fluorescence detector (Rubystar, BMG) using a 337 nm laser for excitation and monitoring emission wavelength at 665 nm. Within the linear range of the assay, the observed signal at 665 nm was directly related to phosphorylated product and can be used to calculate the IC50 values.

Chain of BTK (Q06187 393-659): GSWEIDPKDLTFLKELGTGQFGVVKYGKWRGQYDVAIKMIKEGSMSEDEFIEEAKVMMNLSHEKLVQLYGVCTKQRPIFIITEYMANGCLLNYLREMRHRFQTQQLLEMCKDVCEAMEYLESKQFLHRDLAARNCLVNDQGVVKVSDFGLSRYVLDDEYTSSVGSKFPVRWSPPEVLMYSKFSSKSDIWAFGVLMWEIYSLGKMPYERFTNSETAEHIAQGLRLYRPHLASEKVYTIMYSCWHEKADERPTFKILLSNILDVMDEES

| SMILES | IC50 |
| --- | --- |
| C=CC(=O)N1CC[C@H](c2cn3ncnc3c(Nc3cnn(C)c3)n2)C1 (single isomer, unassigned) [Example 6] | < 0.1 µM |
| C=CC(=O)N[C@@H]1CC[C@H](c2cc(Nc3ccn(C)n3)c3ncnn3c2)C1 (single isomer, unassigned) [Example 7] | < 0.1 µM |
| C=CC(=O)N[C@@H]1CC[C@H](c2cc(Nc3cc4n(n3)CCOC4)c3ncnn3c2)C1 (single isomer, unassigned) [Example 8 (1R,3S)] | < 0.1 µM |
| C=CC(=O)N1CC[C@@H](c2cn3ncnc3c(Nc3cnn(C)c3)n2)C1 (single isomer, unassigned) [Example F1.25] | 1 to 50 µM |
| C=CS(=O)(=O)N1CC[C@H](c2cn3ncnc3c(Nc3ccc(OC)c(OC)c3)n2)C1 (single isomer, unassigned) [H.1] | < 0.1 µM |
| C=CC(=O)NCc1cccc(-c2cn3ncnc3c(Nc3ccc(N4CCOCC4)cc3)n2)c1 [C.1.1] | 1 to 50 µM |
| C=CC(=O)N1CCC(c2cc(Nc3ccc(OC)nn3)c3ncnn3c2)C1 (stereo not drawn) [Example 2, 1-(3-(8-(6-Methoxypyridazin-3-ylamino)-[1,2,4]triazolo[1,5-a]pyridin-6-yl)pyrrolidin-1-yl)prop-2-en-1-one trifluoroacetate] | 0.1 to 1 µM |
| C=CC(=O)N1CC[C@H](c2cc(Nc3cc4n(n3)CCOC4)c3ncnn3c2)C1 [Example 4, 1-{(R)-3-[8-(6,7-Dihydro-4H-pyrazolo[5,1-c][1,4]oxazin-2-ylamino)-[1,2,4]triazolo[1,5-a]pyridin-6-yl]-pyrrolidin-1-yl}-propenone] | < 0.1 µM |
| C=CC(=O)N1CCCC(c2cc(Nc3nc(C(C)C)no3)c3ncnn3c2)C1 (stereo not drawn) [Example F1.31, 1-(3-(8-((3-isopropyl-1,2,4-oxadiazol-5-yl)amino)-[1,2,4]triazolo[1,5-a]pyridin-6-yl)piperidin-1-yl)prop-2-en-1-one] | 1 to 50 µM |
| C=CC(=O)N1CCCC(c2cc(Nc3nc(C)no3)c3ncnn3c2)C1 (stereo not drawn) [Example F1.32, 1-(3-(8-((3-methyl-1,2,4-oxadiazol-5-yl)amino)-[1,2,4]triazolo[1,5-a]pyridin-6-yl)piperidin-1-yl)prop-2-en-1-one] | 1 to 50 µM |
| C=CC(=O)N1CC[C@@H](c2cc(Nc3cc4n(n3)CCOC4)c3ncnn3c2)C1 [Example F1.33, (S)-1-(3-(8-((6,7-dihydro-4H-pyrazolo[5,1-c][1,4]oxazin-2-yl)amino)-[1,2,4]triazolo[1,5-a]pyridin-6-yl)pyrrolidin-1-yl)prop-2-en-1-one] | 1 to 50 µM |
| C=CC(=O)N[C@H]1CC[C@@H](c2cc(Nc3ccn(C)n3)c3ncnn3c2)C1 [Example F1.34] | 0.1 to 1 µM |
| C=CC(=O)N1CC[C@@H](c2cc(Nc3ccn(C)n3)c3ncnn3c2)C1 [Example F1.37, (S)-1-(3-(8-((1-methyl-1H-pyrazol-3-yl)amino)-[1,2,4]triazolo[1,5-a]pyridin-6-yl)pyrrolidin-1-yl)prop-2-en-1-one] | 1 to 50 µM |
| C=CC(=O)N1CCC(c2cn3ncnc3c(Nc3ccc4c(c3)NC(=O)CCC4)n2)C1 (stereo not drawn) [F.1, 8-((6-(1-acryloylpyrrolidin-3-yl)-[1,2,4]triazolo[1,5-a]pyrazin-8-yl)amino)-4,5-dihydro-1H-benzo[b]azepin-2(3H)-one] | < 0.1 µM |
| C=CC(=O)NCc1cccc(-c2cn3ncnc3c(NC34CC(C3)C4)n2)c1 [F.1.1] | 0.1 to 1 µM |
| C=CC(=O)Nc1ccccc1-c1cn2ncnc2c(NC23CC(C2)C3)n1 [F.1.3] | 1 to 50 µM |
| C=CC(=O)N1CCCC(c2cn3ncnc3c(Nc3ccc4c(c3)NC(=O)CCC4)n2)C1 (stereo not drawn) [F.1.4, 8-((6-(1-acryloylpiperidin-3-yl)-[1,2,4]triazolo[1,5-a]pyrazin-8-yl)amino)-4,5-dihydro-1H-benzo[b]azepin-2(3H)-one] | < 0.1 µM |
| C=CC(=O)N1CCC(c2cn3ncnc3c(Nc3ccc(OC)c(OC)c3)n2)C1 (stereo not drawn) [F.1.8] | 0.1 to 1 µM |
| C=CC(=O)N1CC[C@H](c2cn3ccnc3c(Nc3ccc4c(c3)NC(=O)CCC4)n2)C1 [F.1.10, (S)-8-((6-(1-acryloylpyrrolidin-3-yl)imidazo[1,2-a]pyrazin-8-yl)amino)-4,5-dihydro-1H-benzo[b]azepin-2(3H)-one] | 0.1 to 1 µM |
| C=CC(=O)N1CCC(c2cc(Nc3ccc4c(c3)NC(=O)CCC4)c3ncnn3c2)C1 (stereo not drawn) [F.1.15, 8-((6-(1-acryloylpyrrolidin-3-yl)-[1,2,4]triazolo[1,5-a]pyridin-8-yl)amino)-4,5-dihydro-1H-benzo[b]azepin-2(3H)-one] | 0.1 to 1 µM |
| C=CC(=O)N1CCC(c2cn3ncnc3c(Nc3cnn(C)c3)n2)C1 (stereo not drawn) [F.1.22, 1-(3-(8-((1-methyl-1H-pyrazol-4-yl)amino)-[1,2,4]triazolo[1,5-a]pyrazin-6-yl)pyrrolidin-1-yl)prop-2-en-1-one] | < 0.1 µM |
| C=CC(=O)N1CC[C@H](c2cc(Nc3ccn(C)n3)c3ncnn3c2)C1 [F.1.38, (R)-1-(3-(8-((1-methyl-1H-pyrazol-3-yl)amino)-[1,2,4]triazolo[1,5-a]pyridin-6-yl)pyrrolidin-1-yl)prop-2-en-1-one] | < 0.1 µM |
| C=CC(=O)N1CC[C@@H](c2cc(Nc3cc4n(n3)CCN(C)C4)c3ncnn3c2)C1 [F.1.39] | < 0.1 µM |

Second part, the molecule after the results:

| IC50 | SMILES |
| --- | --- |
| < 0.1 µM | C=CC(=O)N1CCC[C@H](c2cc(Nc3cc4n(n3)CCOC4)c3ncnn3c2)C1 (single isomer, unassigned) [Example 5] |
| < 0.1 µM | C=CC(=O)N[C@H]1CC[C@@H](c2cc(Nc3cc4n(n3)CCOC4)c3ncnn3c2)C1 (single isomer, unassigned) [Example 8 (1S,3R)] |
| < 0.1 µM | C=CC(=O)N[C@@H]1CC[C@H](c2cc(Nc3ccc(N4CCOCC4)cn3)c3ncnn3c2)C1 (single isomer, unassigned) [Example 9 (1R,3S)] |
| 0.1 to 1 µM | C=CC(=O)N[C@H]1CC[C@@H](c2cc(Nc3ccc(N4CCOCC4)cn3)c3ncnn3c2)C1 (single isomer, unassigned) [Example 9 (1S,3R)] |
| 1 to 50 µM | C=CC(=O)N1CCC[C@@H](c2cc(Nc3cc4n(n3)CCOC4)c3ncnn3c2)C1 (single isomer, unassigned) [Example F1.24] |
| < 0.1 µM | C=CC(=O)N1CCC(c2cc(Nc3ccn(C)n3)c3ncnn3c2)C1 (stereo not drawn) [Example 1, 1-(3-(8-((1-methyl-1H-pyrazol-3-yl)amino)-[1,2,4]triazolo[1,5-a]pyridin-6-yl)pyrrolidin-1-yl)prop-2-en-1-one] |
| 0.1 to 1 µM | C=CC(=O)N1CCCC(c2cc(Nc3cc4n(n3)CCOC4)c3ncnn3c2)C1 (stereo not drawn) [Example F1.30, 1-(3-(8-((6,7-dihydro-4H-pyrazolo[5,1-c][1,4]oxazin-2-yl)amino)-[1,2,4]triazolo[1,5-a]pyridin-6-yl)piperidin-1-yl)prop-2-en-1-one] |
| < 0.1 µM | C=CC(=O)N[C@@H]1CCC[C@H](c2cc(Nc3ccn(C)n3)c3ncnn3c2)C1 [Example F1.35] |
| 0.1 to 1 µM | C=CC(=O)N[C@H]1CCC[C@H](c2cc(Nc3ccn(C)n3)c3ncnn3c2)C1 [Example F1.36] |
| 0.1 to 1 µM | C=CC(=O)Nc1cccc(-c2cn3ncnc3c(NC34CC(C3)C4)n2)c1 [F.1.2] |
| < 0.1 µM | C=CC(=O)Nc1cccc(-c2cn3ncnc3c(Nc3ccc4c(c3)NC(=O)CCC4)n2)c1 [F.1.5, N-(3-(8-((2-oxo-2,3,4,5-tetrahydro-1H-benzo[b]azepin-8-yl)amino)-[1,2,4]triazolo[1,5-a]pyrazin-6-yl)phenyl)acrylamide] |
| < 0.1 µM | C=CC(=O)N1CC[C@@H](c2cn3ccnc3c(Nc3ccc4c(c3)NC(=O)CCC4)n2)C1 [F.1.9, (R)-8-((6-(1-acryloylpyrrolidin-3-yl)imidazo[1,2-a]pyrazin-8-yl)amino)-4,5-dihydro-1H-benzo[b]azepin-2(3H)-one] |
| 0.1 to 1 µM | C=CC(=O)N1CC[C@H](c2cn3ncnc3c(Nc3ccc(OC)c(OC)c3)n2)C1 [F.1.11] |
| 0.1 to 1 µM | C=CC(=O)N1CCC(c2cn3ncnc3c(Nc3ccc4c(c3)NC(=O)CC4)n2)C1 (stereo not drawn) [F.1.13, 7-((6-(1-acryloylpyrrolidin-3-yl)-[1,2,4]triazolo[1,5-a]pyrazin-8-yl)amino)-3,4-dihydroquinolin-2(1H)-one] |
| 1 to 50 µM | C=CC(=O)N1CCC(c2cn3ncnc3c(NC)n2)C1 (stereo not drawn) [F.1.16, 1-(3-(8-(methylamino)-[1,2,4]triazolo[1,5-a]pyrazin-6-yl)pyrrolidin-1-yl)prop-2-en-1-one] |
| 0.1 to 1 µM | C=CC(=O)N1CCC(c2cn3ncnc3c(Nc3ccc(N4CCOCC4)nc3)n2)C1 (stereo not drawn) [F.1.19, 1-(3-(8-((6-morpholinopyridin-3-yl)amino)-[1,2,4]triazolo[1,5-a]pyrazin-6-yl)pyrrolidin-1-yl)prop-2-en-1-one] |
| 0.1 to 1 µM | C=CC(=O)N1CCCC(c2cc(Nc3ccn(C)n3)c3ncnn3c2)C1 (stereo not drawn) [F.1.21, 1-(3-(8-((1-methyl-1H-pyrazol-3-yl)amino)-[1,2,4]triazolo[1,5-a]pyridin-6-yl)piperidin-1-yl)prop-2-en-1-one] |
| 1 to 50 µM | C=CC(=O)N1CCC(c2cn3ncnc3c(Nc3ccn(C)n3)n2)C1 (stereo not drawn) [F.1.23, 1-(3-(8-((1-methyl-1H-pyrazol-3-yl)amino)-[1,2,4]triazolo[1,5-a]pyrazin-6-yl)pyrrolidin-1-yl)prop-2-en-1-one] |
| < 0.1 µM | C=CC(=O)N1CCC[C@@H](c2cc(Nc3cc4n(n3)CCN(C)C4)c3ncnn3c2)C1 [F.1.40] |
